The values below come from article PMC6244536, “In Vivo Stabilized SB3, an Attractive GRPR Antagonist, for Pre- and Intra-Operative Imaging for Prostate Cancer” (Molecular Imaging and Biology, 2018).

Like-named read-outs stand apart in the source and are kept apart here.

For data set [1] the following is noted: pre-clinical studies of PA combined with radiotracers; cited from earlier work. The source says: For application in patients, NEP inhibitors that are already approved for clinical use such as Sacubitril and Racecadotril might be applied.
A further data set concerns the target human GRPR (Homo sapiens, UniProt P30550). Nature of the data set: biochemical. As to the method: (§1) All statistical evaluations were performed with GraphPad Prism software (version 5.01). The IC50 value was calculated using a log (inhibitor) vs response model. To compare in vivo stability −/+ PA, radioactivity uptake in the tumor −/+ PA and radioactivity uptake in the tumor without and with an excess of unlabeled peptide an unpaired t test was used. P values < 0.05 were considered statistically significant. Tumor to organ uptake ratios were calculated per animal and expressed as mean and standard deviation per group.

For data set [2] the following is noted: healthy mice, blood 5 min p.i., radio-HPLC, mean ± SD; for intact radiotracer, % of remaining circulating activity in blood: 200 pmol/25 MBq i.v.; for intact radiotracer in blood: 2000 pmol/25 MBq i.v. Here is the method: To determine the stability of [^111In]SB3 −/+ PA in vivo, healthy mice (n = 3 per group) were intravenously injected with 200 pmol/25 MBq or 2000 pmol/25 MBq [^111In]SB3 (volume 100 μl), co-injected with either 300 μg/100 μl PA (Peptides International Inc.) in 0.5 % ethanol or 100 μl saline solution. Five minutes after injection of [^111In]SB3 −/+ PA, blood (0.5–1 ml) was collected by cardiac puncture, while animals were under isoflurane/O2 anesthesia, and transferred to blood-collection tubes containing 90 USP units of lithium heparin (spray coated), HPLC grade ethanol was added in a 1:1 (v/v) ratio, and the tubes were placed on ice. Blood samples were centrifuged 5 min at 1250g, and supernatant was collected. Next, the collected supernatant was centrifuged again for 5 min at 12,500g. The secondary supernatant was collected and diluted with MilliQ down to < 25 % ethanol before injection on HPLC. The samples were analyzed by HPLC (Alliance, Waters) including a Symmetry C18 column (5 μm × 4.6 mm × 250 mm). Elution was performed in a 1-ml/min flow, completed in 30 min, with the gradient 0–5 min 100 % A, 5–5.01 min 40 % A 60 % B, 5.01–20 min 20 % A 80 % B, 20–20.01 min 100 % B, 20.01–25 min 100 % B, and 25.01–30 min 100 % A, where A was 0.1 % TFA in H2O and B was methanol.

Another data set is described as follows: in vivo. To be noted: male, Balb c nu/nu, mouse, iv, total radioactivity. Here is the method: (§2) Healthy or xenografted Balb c nu/nu male mice (Janvier) were used in this study. To obtain xenografted mice, animals were injected subcutaneously in the right shoulder with PC-3, 3 × 10^6 cells in Matrigel (total volume 150 μl, solution 66 % RPMI, 33 % Matrigel) per animal. Prior to tumor cell inoculation, the PC-3 cells were cultured in RPMI medium supplemented with 10 % fetal bovine serum, 5000 IU/ml penicillin, and 5000 μg/ml streptomycin at 37 °C in a humidified atmosphere containing 5 % CO2. PC295 is an androgen-dependent, patient-derived cell line with high GRPR expression. Xenografts were generated by subcutaneous implantation of the PC295 human prostate tumor as previously described and were stored at − 80 °C until further use. All culture supplies were purchased at Gibco.
(§3) Tumor-bearing mice received an intravenous injection of 200 pmol/2.5 MBq [^111In]SB3, co-injected with either 300 μg/100 μl PA in 0.5 % ethanol or 100 μl saline solution (n = 4 animals per group for each time point). […] To determine specificity of tumor and organ uptake, blocking experiments were performed; an additional group of animals (n = 3) was pre-injected with an excess (20 nmol) of unlabeled SB3 followed by injection of the radiotracer −/+ PA. At three different time points p.i. (1, 4, and 24 h), animals were euthanized and blood, organs, and tumors were collected, weighed, and measured in a γ-counter (1480 WIZARD automatic γ-counter, PerkinElmer). For γ-counter measurements, an isotope specific energy window, a counting time of 60 s, and a counting error ≤ 5 % were used. Results were expressed as the percentage of the injected dose per gram tissue (% ID/g tissue). Animals that had ≥ 7 % ID in the tail were excluded.
as §1

Data set [3] has as its system PC-3 tumor xenografts (GRPR-expressing). Nature of the data set: in vivo. Conditions: mouse. As to the method:
as §2, §3, §1

The test system is the same in data set [4]. Conditions: 1 h p.i.; for tumor ROI signal intensity on SPECT: 25 MBq/200 pmol i.v. As to the method: For SPECT/MRI, PC-3-xenografted mice were intravenously injected with 25 MBq/200 pmol [^111In]SB3, co-injected with either 300 μg/100 μl PA in 0.5 % ethanol or 100 μl saline solution. Subsequently, imaging was performed 1, 4, and 24 h p.i. of the radiotracer, while animals were anesthetized using isoflurane/O2, body temperature was maintained using warm air flow, and respiratory rate was monitored. Whole-body SPECT images were acquired using the novel and state-of-the-art four-head multipinhole system (NanoScan SPECT/MRI, Mediso Medical Imaging) in 30 min (28 projections, 29 s/projection, and 7-cm axial field of view). Images were reconstructed using OSEM with six iterations and four subsets on a 120 × 120 matrix with 0.25 × 0.25 × 0.25-mm isotropic voxels. MR-based attenuation correction was applied to all images. T2 MR images were acquired using a spin echo sequence (TR/TE = 4500/52 ms) with a 35-mm-diameter solenoid coil. Other scan parameters were field of view 70 mm, matrix 256 × 128, and slice thickness 1 mm with 0.1-mm spacing between slices. An ROI of the tumor was drawn by an experienced technician on the T2-weighted MR image to measure the intensity in the SPECT image.

The conditions of data set [5]: Indium-111 labeled; cited from earlier work. The source says: Preclinical as well as clinical PET imaging studies using [^68Ga]SB3 have been performed with great success. […] To increase the in vivo stability of radiopeptides, multiple solutions are available, including structural modifications of a peptide or the novel approach of inhibition of enzymes responsible for enzymatic degradation. Since structural modifications are time consuming, and ...

[6] abbreviates: co-injected with 300 μg PA, n = 3.

Sequence of human GRPR (P30550 whole entry): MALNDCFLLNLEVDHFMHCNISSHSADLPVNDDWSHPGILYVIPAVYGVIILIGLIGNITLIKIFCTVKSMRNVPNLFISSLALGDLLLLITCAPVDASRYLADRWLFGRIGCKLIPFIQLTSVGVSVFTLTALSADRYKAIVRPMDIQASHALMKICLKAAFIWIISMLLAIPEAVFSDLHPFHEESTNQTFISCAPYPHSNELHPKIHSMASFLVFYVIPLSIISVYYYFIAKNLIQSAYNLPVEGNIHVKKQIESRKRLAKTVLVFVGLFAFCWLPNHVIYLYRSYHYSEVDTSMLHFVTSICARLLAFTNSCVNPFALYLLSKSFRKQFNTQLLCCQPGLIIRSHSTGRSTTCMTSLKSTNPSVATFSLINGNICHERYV

For the compound `CC(C)C[C@H](NP(=O)(O)O[C@@H]1O[C@@H](C)[C@H](O)[C@@H](O)[C@H]1O)C(=O)N[C@@H](Cc1c[nH]c2ccccc12)C(=O)O` [PA, phosphoramidon], the adverse events result in data set [1] was “have not indicated any adverse events”.

As for `CCNC(=O)[C@H](CC(C)C)NC(=O)[C@H](Cc1c[nH]cn1)NC(=O)CNC(=O)[C@@H](NC(=O)[C@H](C)NC(=O)[C@H](Cc1c[nH]c2ccccc12)NC(=O)[C@H](CCC(N)=O)NC(=O)[C@@H](Cc1ccccc1)NC(=O)COCC(=O)Nc1ccc(CNC(=O)CN2CCN(CC(=O)O)CCN(CC(=O)O)CCN(CC(=O)O)CC2)cc1)C(C)C` [SB3, Sarabesin 3], on human GRPR, it took 3.5 nM to reach half-maximal inhibition (IC50).

Turning to `CCNC(=O)[C@H](CC(C)C)NC(=O)[C@H](Cc1c[nH]cn1)NC(=O)CNC(=O)[C@@H](NC(=O)[C@H](C)NC(=O)[C@H](Cc1c[nH]c2ccccc12)NC(=O)[C@H](CCC(N)=O)NC(=O)[C@@H](Cc1ccccc1)NC(=O)COCC(=O)Nc1ccc(CNC(=O)CN2CCN(CC(=O)O)CCN(CC(=O)O)CCN(CC(=O)O)CC2)cc1)C(C)C` [[^111In]SB3, metal not drawn], the “intact radiotracer, % of remaining circulating activity in blood” value in data set [2] (setting [6]) is reported as 86.7 ± 1.5%; in data set [2] (without PA, n = 3) it was 37.3 ± 2.5%. Also, the “intact radiotracer in blood” value came to 87.9 ± 1.1% in data set [2] (setting [6]) and 42.0 ± 0.2% in data set [2] (without PA, one animal excluded). The tissue uptake at 1 h in the data set “in vivo” (200 pmol, pancreatic uptake) worked out at 4.1 ± 2.3 %ID/g; in “in vivo” (200 pmol, renal uptake), 3.9 ± 1.4 %ID/g; in “in vivo” (200 pmol, tumor uptake), 10.2 ± 1.5 %ID/g; in “in vivo” (pancreatic uptake), 10.1 ± 4.3 %ID/g; in the data set “in vivo” (renal uptake) it was 4.5 ± 1.4 %ID/g; in the data set “in vivo” (tumor uptake), 19.7 ± 3.5 %ID/g. Further, the tissue to tissue ratio at 1 h in “in vivo” (200 pmol, tumor to kidney ratio) was determined as 2.8 ± 1; in the data set “in vivo” (200 pmol, tumor to pancreas radioactivity ratio), 3.4 ± 2.5; in “in vivo” (tumor to kidney ratio), 4.8 ± 2.2; in “in vivo” (tumor to pancreas radioactivity ratio), 2.2 ± 0.8. In addition, the tissue uptake at 4 h in the data set “in vivo” (200 pmol, tumor uptake) came out at 8.3 ± 1.1 %ID/g; in “in vivo” (tumor uptake), 17.6 ± 5.1 %ID/g. Also, the tissue uptake at 24 h is 3.1 ± 1.9 %ID/g in the data set “in vivo” (200 pmol, tumor uptake) and 6.5 ± 3.3 %ID/g in the data set “in vivo” (tumor uptake). In data set [3], the “uptake in the pancreas and the tumor with an excess of unlabeled SB3 (blocking)” value is recorded as “significantly decreased”. The results for the “tumor ROI signal intensity on SPECT” value in data set [4] (with 300 μg PA) and in data set [4] (without PA) were 2434 kBq/ml and 1424 kBq/ml, respectively. Moreover, the “increase in tumor signal intensity with PA vs without PA” value in data set [4] (ROI analysis, 25 MBq/200 pmol) was 70%. For the same compound, the in vivo stability result in data set [5] is on record as “poor in vivo stability”.
